Usually IC50 stands for the concentration that gives 50% inhibition. Lower therefore signals higher potency. For orientation: inhibition means the percentage by which the read-out fell short of the control. A high value points to a response far below the control.

Experimental findings from ChEMBL document CHEMBL1146815, “Novel dual inhibitors of calpain and lipid peroxidation” (Bioorg Med Chem Lett, 2004) are described below.

Assay [1] concerns the target T1, Calpain-1 catalytic subunit (Homo sapiens, UniProt P07384).
T1 sequence (P07384 whole entry): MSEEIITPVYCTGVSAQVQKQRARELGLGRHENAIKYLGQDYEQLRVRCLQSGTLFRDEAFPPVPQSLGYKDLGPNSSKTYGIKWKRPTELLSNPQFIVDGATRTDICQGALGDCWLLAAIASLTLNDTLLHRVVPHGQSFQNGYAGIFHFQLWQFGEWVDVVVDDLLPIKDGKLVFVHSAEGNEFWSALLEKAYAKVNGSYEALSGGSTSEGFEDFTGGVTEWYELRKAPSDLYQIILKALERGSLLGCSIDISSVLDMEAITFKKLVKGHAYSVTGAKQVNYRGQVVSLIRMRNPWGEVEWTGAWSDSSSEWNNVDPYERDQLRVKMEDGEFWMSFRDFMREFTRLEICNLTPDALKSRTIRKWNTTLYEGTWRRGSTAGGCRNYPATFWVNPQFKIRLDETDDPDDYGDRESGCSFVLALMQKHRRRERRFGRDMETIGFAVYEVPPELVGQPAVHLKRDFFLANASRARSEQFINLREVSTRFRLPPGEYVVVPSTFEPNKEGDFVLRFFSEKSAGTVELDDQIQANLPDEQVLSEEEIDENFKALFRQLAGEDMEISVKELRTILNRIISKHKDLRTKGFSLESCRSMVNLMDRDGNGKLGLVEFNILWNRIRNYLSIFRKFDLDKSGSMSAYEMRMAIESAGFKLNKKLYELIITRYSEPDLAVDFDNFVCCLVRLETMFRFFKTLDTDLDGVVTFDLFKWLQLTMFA
Briefly: Inhibitory activity against on human calpain 1.

The next assay is filed under the species Rattus norvegicus. Briefly: Ability to inhibit [Fe2+] induced lipid peroxidation (LPO) in rat brain microsomes. In kind it is functional.
The test system of assay [2] is C6. Briefly: Protection against C6 glial cell death induced by maitotoxin. The class given is functional, cell-based. Conditions: Rattus norvegicus; call rule not given here.
For assay [3], the system named is C6. In words: Protection against C6 glial cell death induced by maitotoxin at 100 uM concentration. The class given is functional. Conditions: Rattus norvegicus.
Assay [4] deals with T1, Calpain-1 catalytic subunit. In words: Inhibitory activity against on human calpain 1; Not active.
Assay [5] shares this target. Briefly: Inhibitory activity against on calpain in C6 glial cells; Not active. The class given is functional, cell-based, Rattus norvegicus.

On to `Cc1c(C)c2c(c(C)c1O)CCC(C)(C(=O)N[C@@H](CC(C)C)C(=O)N[C@H]1CCOC1O)O2` (some centres not stated), for which the IC50 in assay [1] is 0.147 µM; in the assay filed under Rattus norvegicus, 1.7 µM.
The corresponding values for `CC(C)C[C@H](NC(=O)c1cccc2c1Nc1ccccc1S2)C(=O)N[C@H]1CCOC1O` (some centres not stated) are 0.082 µM and 3.6 µM.
The compound `CC(=O)OC1OCC[C@@H]1NC(=O)[C@H](CC(C)C)NC(=O)c1ccc2c(c1)Nc1ccccc1S2` (some centres not stated) showed an IC50 in the assay on C6 [2] of 15.5 µM.
For `CC(C)C[C@H](NC(=O)c1ccc2c(c1)Nc1ccccc1S2)C(=O)N[C@H]1CCOC1O` (some centres not stated), the IC50 in the assay on C6 [2] stood at 38.5 µM; in assay [1] it was 0.0225 µM; in the assay listed under Rattus norvegicus, 0.07 µM.
`Cc1cc(C(C)(C)C)c(O)c(C(C)(C)C)c1` [BUTYLATED HYDROXYTOLUENE] had an inhibition at 100 µM in the assay with C6 [3] of 21%. Also, the IC50 entry in assay [4] was “Not Active”; in assay [5], “Not Active”; in the assay filed under Rattus norvegicus it was 3.25 µM.
